Measured values taken from ChEMBL document CHEMBL1123249, “Nitrobenzyl derivatives as bioreductive alkylating agents: evidence for the reductive formation of a reactive intermediate” (1986).

Columns and labels:
Type in all cases: functional, Mus musculus
[1] = tested on: EMT6; test: Compound was evaluated for its effect on survival of hypoxic EMT6 tumor cells when exposed to concentration at 10E-6 M
[2] = tested on: EMT6; test: Compound was evaluated for its effect on survival of aerobic EMT6 tumor cells when exposed to concentration at 10e-8 M
[3] = tested on: EMT6; test: Compound was evaluated for its effect on survival of hypoxic EMT6 tumor cells when exposed to concentration at 10E-4 M
[4] = tested on: EMT6; test: Compound was evaluated for its effect on survival of aerobic EMT6 tumor cells when exposed to concentration at 10E-4 M
[5] = tested on: EMT6; test: Compound was evaluated for its effect on survival of hypoxic EMT6 tumor cells when exposed to concentration at 10E-8 M
[6] = tested on: EMT6; test: Compound was evaluated for its effect on survival of aerobic EMT6 tumor cells when exposed to concentration at 10E-6 M
[7] = tested on: EMT6; test: Compound was evaluated for its effect on survival of aerobic EMT6 tumor cells when exposed to concentration at 10e-6 M
[8] = tested on: EMT6; test: Compound was evaluated for its effect on survival of aerobic EMT6 tumor cells when exposed to concentration at 10E-5 M
[9] = tested on: EMT6; test: Compound was evaluated for its effect on survival of hypoxic EMT6 tumor cells when exposed to concentration at 10e-5 M
[10] = tested on: EMT6; test: Compound was evaluated for its effect on survival of hypoxic EMT6 tumor cells when exposed to concentration at 10e-7 M
[11] = tested on: EMT6; test: Compound was evaluated for its effect on survival of aerobic EMT6 tumor cells when exposed to concentration at 10e-7 M

Row | Compound | Surviving factor [1] | Surviving factor [2] | Surviving factor [3] | Surviving factor [4] | Surviving factor [5] | Surviving factor [6] | Surviving factor [7] | Surviving factor [8] | Surviving factor [9] | Surviving factor [10] | Surviving factor [11]
1 | Nc1nc(SCc2ccc([N+](=O)[O-])cc2)c2nc[nH]c2n1 | 137% | 79% | 156% | 78% | 102% | 106% | – | – | – | – | –
2 | Nc1nc(SCc2cccc([N+](=O)[O-])c2)c2[nH]cnc2n1 | 103% | – | 88% | 91% | – | – | 95% | 103% | 103% | – | –
3 | Nc1nc(SCc2ccccc2[N+](=O)[O-])c2[nH]cnc2n1 | 82% | 91% | 85% | 89% | 94% | 95% | – | – | – | – | –
4 | Nc1nc2[nH]cnc2c(=S)[nH]1 [THIOGUANINE] | 90% | – | 106% | 67% | – | – | 70% | 78% | 107% | 89% | 95%
